These results are taken from patent US20040142379A1, “Affinity fishing for ligands and proteins receptors” (Carlsberg Research Laboratory, priority 2003, published 2004).

For assay [1], the system named is E. coli membrane proteins. The experiment in a line: Solid phase screening of Library 2 with E. coli membrane proteins; on-bead tryptic digest and protein identification. Format: binding, Escherichia coli DH 5α-136. The following applies: proteins bound to resin-bound Library 2 ligand; LA low abundance, M inner or outer membrane, P periplasmic space. The protocol: A 400 mL culture of Escherichia coli DH 5α-136 (Carlsberg Research Center Collection) was prepared according to the procedures described in Hanahan, 1985, In: DNA Cloning, Vol 1, Glover, D., ed., IRL Press Ltd, pp. 109-135. Cells were grown from innocula in LB media at 37° C. for 5 to 6 hours and harvested in the latter log phase at an optical density of 0.8 (600 nm) by centrifugation (10,000 rpm for 10 minutes at 4° C.). The media containing extracellular protein was retained and the pellet washed once with PBS, pH 7.6 (cellular weight=2.22 g).
Isolation of E. coli membrane proteins was achieved through modification of published literature procedures: Auer, et al., 2001, Biochemistry, 40:6628-6635, and Molloy, et al., 2000, Eur. J. Biochem. 267:2871-2881. After incubation of E. coli cells for 2 days, washed cells were scraped from plates and centrifuged as described above for Example 10. The cell pellet (approximately 1 g) was suspended in 50 mM Tris HCl, pH 7.5 and pressed (2×) in a French Press at 1500 Psi. The resulting suspension was centrifuged at 2500×g for 10 minutes. The ice cold supernatant was diluted with 2.5 ml of ice-cold 0.1 M sodium carbonate buffer 11 and the solution stirred on ice for 1 hour. Ultracentrifugation was then carried out at 115, 000×g for 1 to 1.5 hours at 4° C., yielding Pellet 1 and Supernatant 1. The membrane pellet 1 was resuspended in 50 mM Tris HCl, pH 7.5 and the pellet was recollected after centrifugation for an additional 20 minutes at 115,000×g, yielding Pellet 2 and supernatant 2. Pellet 2 was solubilized in 50 mM Tris HCl, pH 7.5 containing 10 mM imidazole, 0.5 mM PMSF, 20% glycerol, and 1% Dodecyl Maltoside (DDM) or 33 mM Octyl Glucoside (OG) for 30 minutes at 4° C. The suspension was then centrifuged for 10,000 g for 30 minutes. The pellet and supernatant obtained were labeled Pellet 3 and supernatant 3.
Protein content was determined by checking the absorbance of the protein at 280 nm. The protein concentration in the DDM sample was 0.93 mg/mL, while in the OG sample 0.07 mg/mL protein was obtained.
The protein was labeled with amino reactive succinylanthranilate dye (blue) DDM (0.49 mg dye) and OG (0.03 mg dye) according to the same protocol used in the extracellular labeling described above for Example 12. The labeling stopping reaction (hydroxylamine hydrochloride addition) was not used in this case, to avoid dilution of the protein. The mixture was dialyzed overnight against 10 mM PBS buffer, pH 6.8 containing 0.01 mM ZnCl2, 0.01 mM CaCl2, 0.01 mM MnCl2, and 0.01 mM MnSO4, against a three time buffer change.
The ligand library was then washed, and E. coli labeled membrane protein, prepared as described above for Example 13, was added (0.1 ml). The ligand library and protein mixture was incubated overnight at room temperature.
A typical analysis employed 100-300 laser shots.
Beads containing 40 different specific ligands that bind E. coli protein, the binding ligands isolated by the process described for Example 16 and identified as described for Example 19, were placed into 40 wells of a Multiwell filter plate (Multiscreen DV plates, Millipore). Control beads containing PEGA4000 resin plus the spacer and linker with no ligand compound were used. The binding of unlabeled E. coli proteins was carried out in duplicate. The ligand beads were washed with Millipore water for 3×5 minutes and then with 10 mM PBS buffer (as described for Example 15) for 3×5 minutes under vacuum. Unlabeled E. coli protein, produced as described for Example 13, (400 μg) was added to each well and incubated at room temperature overnight. The next day, the unbound protein solution from each well was removed under suction and the beads were washed with Millipore water and buffer respectively for 3×5 minutes under vacuum.
Protein was cleared from beads containing protein-ligand binding “positive hits” isolated as described for Examples 21 (myocyte proteins) and 22 (E. coli proteins). […]

Assay [2] concerns six protein mixture: Con A, P. sativum lectin, L. culinaris lectin, W. floribunda lectin, Glyceraldehyde 6-phosphate, and bovine serum albumin (BSA). As to conditions: proteins eluted from ligand on PEGA6000 resin with 0.5 M mannose and/or N-acetylglucosamine. How it is done: The ligand-resin was washed with 10 mM PBS buffer, pH 6.8 containing 1 mM CaCl2 and 1 mM MnCl2. A mixture of unlabelled proteins, Glycerol-3-phosphate: BSA: Wisteria floribunda: Lens culinaris: Pisatum sativum in a […] weight ratio was dissolved in 10 mM PBS buffer, pH 6.8 containing 1 mM CaCl2 and 1 mM MnCl2 The protein mix (3.5 mL, ca. 1.2 mg protein) was applied to each ligand column and allowed to bind overnight. The column was washed with the same buffer until no more protein was eluted (Abs 280 nm). Bound protein was eluted from the column using 0.5M mannose in 10 mM PBS buffer, pH 8.0 containing CaCl2 and 1 mM MnCl2 (buffer filtered to remove CaOH2 formed) for glycopeptides containing only mannose, 0.5 M N-acetylglucosamine in 10 […] mM PBS buffer, pH 8.0 containing CaCl2 and 1 mM MnCl2 (buffer filtered to remove CaOH2 formed) for glycopeptides containing only GlcNAc, and both buffers for glycopeptides containing both mannose and GlcNAc, or for unglycosylated peptides. Samples were obtained in about 700 μL volume and frozen for later protein identification.

“Also recorded” adds a separate entry of the source. No end group written: not given here.

On to T(Sa)-H-W-V-V, for which, in assay [1], the “Identified Protein(s)” value is on record as “Pyruvoyl dependent aspartate decarboxylase, colicin E2, Histidine kinase (M)”.

For T(Sa)-M-V-N-W, the “Identified Protein(s)” value in assay [1] is given as “ATP dependent helicase, mob C”.

On to T(Sa)-F-G-L-M, for which the “Identified Protein(s)” value in assay [1] is recorded as “Hemolysin C, high affinity potassium transport system (M), quinone oxidoreductase; also recorded: (M), ferrodoxin dependent NA(D)PH oxidoreductase (M)”.

With GlcNN-Val-GlcNN-His-ManS-Gly, the “Identified Protein(s)” value in assay [2] is given as “Con A, P. sativum lectin”.

As for T(Sa)-Y-S-M-P, the “Identified Protein(s)” value in assay [1] was “Biotin synthetase, UDP-glucose dehydrogenase, tyrosine protein kinase (LA), fatty; also recorded: acid oxidase complex proteins”.

For the substance T(Sa)-F-G-I-W, the “Identified Protein(s)” value in assay [1] is listed as “Histidine synthetase, aspartate carbamoyl transferase, protein involved in permease; also recorded: transport system (M)”.

Take ManS-Gly-ManS-Asp-Asn-Ala: the “Identified Protein(s)” value in assay [2] is reported as “Con A, P. sativum lectin”.

For the substance ManN-Phe-Trp-Ser-Lys-His, the “Identified Protein(s)” value in assay [2] is “Con A, P. sativum lectin”.

For T(Sa)-H-L-G-Y, the “Identified Protein(s)” value in assay [1] is recorded as “Protein involved in lipopolysaccharide biosynthesis (M), phosphomannose isomerase”.

With T(Sa)-F-N-H-S, in assay [1], the “Identified Protein(s)” value is recorded as “Phosphate acetyl transferase, acid shock protein, molybdopterin converting factor; also recorded: subunit”.

In the case of T(Sa)-F-V-W-H, the “Identified Protein(s)” value in assay [1] was “NADH dehydrogenase (M), protein involved in flagellar biosynthesis and motor; also recorded: switching component (M); also recorded: Lysine-arginine-ornithine-binding protein (P), ATP-binding component of glycine-; also recorded: betaine-proline transport protein (P)”.

As to T(Sa)-G-V-F-L, the “Identified Protein(s)” value in assay [1] is 50 S ribosomal protein, heme binding lipoprotein (M), regulator for D-glucarate, D- and glycerate and D-galactarate, glutamine tRNA synthetase.

With ManN-ManS-ManN-Trp-Ser-Trp, the “Identified Protein(s)” value in assay [2] is “Con A, P. sativum lectin,; also recorded: L. culinaris lectin”.

As for GPKKYH, the “Identified Protein(s)” value in assay [2] is given as “Con A, P. sativum lectin,; also recorded: L. culinaris lectin”.

For T(Sa)-W-V-N-M, in assay [1], the “Identified Protein(s)” value is “Transposase, inner membrane protein for phage attachment (M)”.

Turning to T(Sa)-L-Y-I-F, the “Identified Protein(s)” value in assay [1] is recorded as “Colicin, hypothetical membrane protein (M) outer membrane lipoprotein (M),; also recorded: arylsulfatase”.

Consider T(Sa)-L-Y-L-F, for which, in assay [1], the “Identified Protein(s)” value is reported as “Fimbrial protein precursor, alkaline phosphatase (P), cytochrome related proteins (P),”.

In the case of T(Sa)-F-G-I-M, the “Identified Protein(s)” value in assay [1] is on record as “Transposase, transcriptional regulator (LA), GroEL, protein involved in the taurine; also recorded: transport system (M)”.

Turning to GlcNN-Trp-Phe-Asp-Trp-Pro, the “Identified Protein(s)” value in assay [2] is reported as “Con A”.

As for T(Sa)-H-W-H-L, the “Identified Protein(s)” value in assay [1] is “Chorismate mutase, xanthine dehydrogenase, carbamoyl phosphate synthetase”.

For the substance T(Sa)-L-S-W-W, the “Identified Protein(s)” value in assay [1] is “NAD-dependent 7-alpha-hydroxysteriod dehydrogenase, homocysteine transferase,; also recorded: nitrate reductase (P), lactate dehydrogenase, citrate synthetase”.

As for T(Sa)-I-Y-L-F, the “Identified Protein(s)” value in assay [1] is “Membrane bound ATP synthetase (M), ATP hydrolase”.

For the substance T(Sa)-H-I-G-Y, the “Identified Protein(s)” value in assay [1] is recorded as “Fimbrial subunit, outer membrane pyruvate kinase (LA, M)”.

In the case of ManS-GIy-GlcNN-Asn-ManS-Tyr, the “Identified Protein(s)” value in assay [2] is given as “Con A, P. sativum lectin,; also recorded: L. culinaris lectin”.

Consider T(Sa)-F-A-L-V, for which the “Identified Protein(s)” value in assay [1] is listed as “Chaperone DnaK, putative hydrolase, transposase”.

In the case of T(Sa)-H-W-H-I, in assay [1], the “Identified Protein(s)” value is “Mannose-1-phosphate guanyl transferase, isopropyl malate dehydrogenase (M)”.
